Results taken from patent US8158152B2, “Lyophilization process and products obtained thereby” (SciDose LLC, priority 2005, dated 2012).

Legend:
[1] = Solubility as stated in words; format: physicochemical; details: in the presence of small quantities of HCl
[2] = cited from earlier work

SMILES	solubility in non-aqueous solvents (e.g. THF) [1]	solubility in solvents, as generally considered ([2]; general knowledge)	solubility in ethanol ([2]; ethanol)	solubility in water ([2]; water)
CCC(C)n1ncn(-c2ccc(N3CCN(c4ccc(OCC5COC(Cn6cncn6)(c6ccc(Cl)cc6Cl)O5)cc4)CC3)cc2)c1=O (stereo not shown) [itraconazole]	high concentrations of itraconazole can be dissolved	soluble in methylene chloride only		
O=P1(N(CCCl)CCCl)NCCCO1 (stereo not shown) [cyclophosphamide]			highly soluble	sparingly soluble
